Holding throughout (assay type): cell-based
For assay [1], the target named is T1, STAT3 (Homo sapiens, UniProt P40763). Description: Western blotting of total STAT1, STAT2, STAT3, STAT5 and STAT6 protein in Molm-16 cells. Also noted: endogenous in cells; host or cells: MOLM-16. The protocol: FIG. 10 is an image showing the Western blotting analysis of total STAT1, STAT2, STAT3, STAT5, and STAT6 protein in Molm-16 cells treated with Cpd. No. 36. Cpd.
(§1) In vitro cultured cells or xenograft tumors were lysed 1× Cell Lysis Buffer (Cell Signaling Technology, #9803), resolved by SDS-PAGE NuPAGE gel (Thermo Fisher Scientific), and transferred to a PVDF membrane (Bio Rad). For chemiluminescence immunoblotting, membranes were blocked for 1 h using 5% Blotting-Grade Blocker (#1706404, Bio Rad) in 1× Tris-buffered saline with Tween 20 (TBST, Pierce). Antibodies used were: rabbit mAbs for STAT3 (Cell Signaling Technology, #4368, #12640) and p-STAT3 (Y705) (Cell Signaling Technology, #9245, #52075). HRP conjugated goat anti-rabbit IgG (H+L) (#A27036) secondary antibodies was from Thermo Fisher Scientific. GAPDH (Santa Cruz Technology, sc-47724HRP) and actin (Santa Cruz Technology, sc-8432HRP, sc-47778HRP) were loading controls. For fluorescent immunoblotting, membranes were blocked using Odyssey TBS Blocker Buffer (LI-COR). IRDye 680RD and 800CW Dye-labeled secondary antibodies (LI-COR) were used. The washed membranes were scanned using Odyssey CLx imager (LI-COR). The intensity of Western blot signaling was quantitated using the Odyssey software.
In general terms: In western blotting, separated proteins are transferred to a membrane and probed.

Assay [2] has as its target T1, STAT3. Description: Western blotting of total STAT1, STAT2, STAT3, STAT4, STAT5 and STAT6 protein in SU-DHL-1 and SUP-M2 cells. Also noted: endogenous in cells. The protocol: FIG. 11 is an image showing the Western blotting analysis of total STAT1, STAT2, STAT3, STAT4, STAT5, and STAT6 protein in SU-DHL-1 and SUP-M2 cells treated with Cpd. Nos. 36 and 37. Cpd.
as §1

For another assay, the target named is T2, mutated STAT3 proteins (Homo sapiens, UniProt P40763, Y705F).
T2 construct: endogenous in cells; host or cells: DLD-1 (Y705F)
T2 sequence (P40763 2-770 Y705F): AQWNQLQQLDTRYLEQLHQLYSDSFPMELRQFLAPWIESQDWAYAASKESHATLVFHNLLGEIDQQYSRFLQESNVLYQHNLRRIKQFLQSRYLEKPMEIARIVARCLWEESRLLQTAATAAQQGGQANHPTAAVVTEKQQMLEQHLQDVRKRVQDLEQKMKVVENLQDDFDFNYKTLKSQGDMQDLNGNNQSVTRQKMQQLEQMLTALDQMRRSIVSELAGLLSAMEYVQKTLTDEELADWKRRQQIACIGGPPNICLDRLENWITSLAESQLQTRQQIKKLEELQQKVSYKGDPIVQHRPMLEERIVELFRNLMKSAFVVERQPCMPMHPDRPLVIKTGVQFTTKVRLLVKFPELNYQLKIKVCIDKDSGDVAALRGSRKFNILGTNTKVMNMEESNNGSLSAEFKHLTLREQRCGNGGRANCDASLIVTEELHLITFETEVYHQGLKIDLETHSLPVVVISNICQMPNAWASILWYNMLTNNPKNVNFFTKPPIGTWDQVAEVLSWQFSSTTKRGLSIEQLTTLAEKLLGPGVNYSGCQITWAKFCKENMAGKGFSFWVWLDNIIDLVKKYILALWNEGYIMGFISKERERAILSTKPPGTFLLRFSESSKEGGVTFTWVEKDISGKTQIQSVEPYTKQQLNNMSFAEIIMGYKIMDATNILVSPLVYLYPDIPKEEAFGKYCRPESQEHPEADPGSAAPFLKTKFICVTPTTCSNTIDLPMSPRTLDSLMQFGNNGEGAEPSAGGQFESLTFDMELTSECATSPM
Description: Western blotting of total STAT3 and p-STAT3 (Y705) in DLD-1 and DLD-1 (Y705F) cells. As to the method: FIG. 9 is an image showing the Western blotting analysis of total STAT3 protein and phosphorylated STAT3 (Y705) in DLD-1 and DLD-1 (Y705F) cells treated with Cpd.
as §1

Assay [3] relates to ALCL and AML cell lines expressing high levels of STAT3. Description: Cell growth inhibition in ALCL and AML cell lines. The source says: FIG. 12 is a table showing that Cpd.

Structures are written as SMILES.

The record followed here is US20230083015A1, “SMALL MOLECULE DEGRADERS OF STAT3” (THE REGENTS OF THE UNIVERSITY OF MICHIGAN, priority 2019, published 2023).

T1 sequence (P40763 whole entry): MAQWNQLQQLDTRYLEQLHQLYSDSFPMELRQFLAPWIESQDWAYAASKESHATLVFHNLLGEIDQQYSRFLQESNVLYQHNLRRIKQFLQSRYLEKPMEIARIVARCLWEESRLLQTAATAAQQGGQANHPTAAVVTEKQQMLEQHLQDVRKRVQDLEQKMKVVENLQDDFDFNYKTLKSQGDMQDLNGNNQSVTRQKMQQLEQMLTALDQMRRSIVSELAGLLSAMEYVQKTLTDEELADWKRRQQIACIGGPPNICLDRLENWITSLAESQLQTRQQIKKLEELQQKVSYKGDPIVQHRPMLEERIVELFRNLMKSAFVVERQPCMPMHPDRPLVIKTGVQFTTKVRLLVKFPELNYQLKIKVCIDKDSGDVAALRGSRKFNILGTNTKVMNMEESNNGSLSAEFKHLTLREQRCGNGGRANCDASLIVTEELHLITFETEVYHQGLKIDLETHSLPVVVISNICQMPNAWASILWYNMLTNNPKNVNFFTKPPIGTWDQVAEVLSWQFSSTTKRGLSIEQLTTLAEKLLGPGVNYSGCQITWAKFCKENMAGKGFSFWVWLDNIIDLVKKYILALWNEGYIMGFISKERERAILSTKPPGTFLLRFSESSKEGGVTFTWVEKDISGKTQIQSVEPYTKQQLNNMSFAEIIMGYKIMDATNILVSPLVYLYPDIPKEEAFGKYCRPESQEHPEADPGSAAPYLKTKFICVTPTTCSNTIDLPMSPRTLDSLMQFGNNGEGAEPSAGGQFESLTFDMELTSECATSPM

On to `NC(=O)CC[C@H](NC(=O)[C@@H]1CC[C@@H]2CCN(C(=O)CCCCCC#Cc3cccc4c3CN(C3CCC(=O)NC3=O)C4=O)C[C@H](NC(=O)c3cc4cc(C(F)(F)P(=O)(O)O)ccc4[nH]3)C(=O)N21)C(=O)NC(c1ccccc1)c1ccccc1` (stereo partly drawn) [Cpd. No. 36, ((2-(((5S,8S,10aR)-8-(((S)-5-amino-1-(benzhydrylamino)-1,5-dioxopentan-2-yl)carbamoyl)-3-(8-(2-(2,6-dioxopiperidin-3-yl)-1-oxoisoindolin-4-yl)oct-7-ynoyl)-6-oxodecahydropyrrolo[1,2-a][1,5]diazocin-5-yl)carbamoyl)-1H-indol-5-yl)difluoromethyl)phosphonic Acid], for which the “selectivity of STAT3 degradation over other STAT members (Western blot)” value on STAT3 [1] and on STAT3 [2] was “specifically degrades STAT3 protein over other STAT members” throughout. Further, the “degradation of mutated STAT3 protein (Western blot)” value at mutated STAT3 proteins is recorded as “degrades mutated STAT3 proteins”. In assay [3], the cell growth inhibition result is given as “inhibits cell growth”.
